Test results taken from PubChem BioAssay AID1963445 (Molecular Pharmacology Branch, DTP, NCI, 2024).

Tested on: MCF7 complex spheroid growth, % test/control
Assay: Anticancer human tumor MCF7 cell line growth inhibition [Asc];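 note: spheroids exposed to compounds for 7 days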;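 for viability, T/C: 100% = DMSO vehicle control wells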
Conditions: for IC50: curve of first compound; for viability, T/C: stronger effect = lower value; active = viability on the fitted dose curve at most 10% of control; inactive = the rest
Procedure, shortened: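 Tumor cells were grown as multicellular spheroids with stromal HUVEC and mesenchymal stem cells and treated singly or in combination. Concentrations fell in half-log steps from the clinical Cmax, or from 10 microM where none was known.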

[1] = second compound 0.00949 µM, first compound 0.0316 µM
[2] = second compound 0.00949 µM, first compound 0.1 µM
[3] = second compound 0.00949 µM, first compound 0.316 µM
[4] = second compound 0.00949 µM, first compound 1 µM
[5] = second compound 0.00949 µM, first compound 3.16 µM
[6] = second compound 0.00949 µM, first compound 10 µM
[7] = second compound 0.03 µM, first compound 0.0316 µM
[8] = second compound 0.03 µM, first compound 0.1 µM
[9] = second compound 0.03 µM, first compound 0.316 µM
[10] = second compound 0.03 µM, first compound 1 µM
[11] = second compound 0.03 µM, first compound 3.16 µM
[12] = second compound 0.03 µM, first compound 10 µM
[13] = second compound 0.0949 µM, first compound 0.0316 µM
[14] = second compound 0.0949 µM, first compound 0.1 µM
[15] = second compound 0.0949 µM, first compound 0.316 µM
[16] = second compound 0.0949 µM, first compound 1 µM
[17] = second compound 0.0949 µM, first compound 3.16 µM
[18] = second compound 0.0949 µM, first compound 10 µM
[19] = second compound 0.3 µM, first compound 0.0316 µM
[20] = second compound 0.3 µM, first compound 0.1 µM
[21] = second compound 0.3 µM, first compound 0.316 µM
[22] = second compound 0.3 µM, first compound 1 µM
[23] = second compound 0.3 µM, first compound 3.16 µM
[24] = second compound 0.3 µM, first compound 10 µM
[25] = second compound 0.949 µM, first compound 0.0316 µM
[26] = second compound 0.949 µM, first compound 0.1 µM
[27] = second compound 0.949 µM, first compound 0.316 µM
[28] = second compound 0.949 µM, first compound 1 µM
[29] = second compound 0.949 µM, first compound 3.16 µM
[30] = second compound 0.949 µM, first compound 10 µM
[31] = second compound 3 µM, first compound 0.0316 µM
[32] = second compound 3 µM, first compound 0.1 µM
[33] = second compound 3 µM, first compound 0.316 µM
[34] = second compound 3 µM, first compound 1 µM
[35] = second compound 3 µM, first compound 3.16 µM
[36] = second compound 3 µM, first compound 10 µM

C#Cc1c(F)ccc2cc(O)cc(-c3ncc4c(N5CC6CCC(C5)N6)nc(OCC56CCCN5CC(F)C6)nc4c3F)c12 (centres undefined) + CCN1C(C(=O)NC23CCC(C(=O)O)(CC2)CC3)C(c2cccc(Cl)c2F)C2(C(=O)Nc3cc(Cl)ccc32)C12CCCCC2
> 10000 nM: IC50 (second compound 0.00949 µM) | IC50 (second compound 0.03 µM)
59.8 nM: IC50 (second compound 0.0949 µM)
inactive: viability, T/C [1] 92.6% | viability, T/C [2] 114% | viability, T/C [3] 111% | viability, T/C [4] 102% | viability, T/C [5] 107% | viability, T/C [6] 76.4% | viability, T/C [7] 100% | viability, T/C [8] 81.7% | viability, T/C [9] 91.8% | viability, T/C [10] 81.2% | viability, T/C [11] 102% | viability, T/C [12] 70.7% | viability, T/C [13] 47.6% | viability, T/C [14] 60.5% | viability, T/C [15] 36.4% | viability, T/C [16] 42.2% | viability, T/C [17] 47.8% | viability, T/C [18] 32.9% | viability, T/C [19] 27.1% | viability, T/C [20] 24.6% | viability, T/C [21] 28.6% | viability, T/C [22] 27.4% | viability, T/C [23] 23.5% | viability, T/C [24] 19.9% | viability, T/C [25] 17.1% | viability, T/C [26] 19.2% | viability, T/C [27] 14.1% | viability, T/C [28] 17.8% | viability, T/C [29] 16.3% | viability, T/C [30] 10.8% | viability, T/C [31] 12.8% | viability, T/C [32] 11.4% | viability, T/C [33] 11.5% | viability, T/C [34] 10.2% | viability, T/C [35] 14.1% | viability, T/C [36] 7.87%
< 31.6 nM: IC50 (second compound 0.3 µM) | IC50 (second compound 0.949 µM) | IC50 (second compound 3 µM)

C=C(F)C(=O)N1CCN(c2nc(OCC3CCCN3C)nc3c2CCN(c2cccc4cccc(Cl)c24)C3)CC1CC#N (centres undefined) + CCN1C(C(=O)NC23CCC(C(=O)O)(CC2)CC3)C(c2cccc(Cl)c2F)C2(C(=O)Nc3cc(Cl)ccc32)C12CCCCC2
< 31.6 nM: IC50 (second compound 0.3 µM) | IC50 (second compound 0.949 µM) | IC50 (second compound 3 µM)
1180 nM: IC50 (second compound 0.0949 µM)
3140 nM: IC50 (second compound 0.00949 µM)
3270 nM: IC50 (second compound 0.03 µM)
inactive: viability, T/C [1] 103% | viability, T/C [2] 115% | viability, T/C [3] 109% | viability, T/C [4] 89.8% | viability, T/C [5] 50.4% | viability, T/C [7] 104% | viability, T/C [8] 77.1% | viability, T/C [9] 109% | viability, T/C [10] 69.3% | viability, T/C [11] 53.8% | viability, T/C [13] 50.4% | viability, T/C [14] 52.5% | viability, T/C [15] 50.5% | viability, T/C [16] 57.5% | viability, T/C [17] 33.6% | viability, T/C [19] 30.5% | viability, T/C [20] 28% | viability, T/C [21] 34.2% | viability, T/C [22] 34.8% | viability, T/C [23] 10.5% | viability, T/C [25] 20.6% | viability, T/C [26] 20.7% | viability, T/C [27] 28.5% | viability, T/C [28] 17.1% | viability, T/C [31] 15.2% | viability, T/C [32] 15.4% | viability, T/C [33] 14.1%
active: viability, T/C [6] 0.16% | viability, T/C [12] 0.23% | viability, T/C [18] 0.14% | viability, T/C [24] 0.24% | viability, T/C [29] 2.09% | viability, T/C [30] 0.2% | viability, T/C [34] 11.8% | viability, T/C [35] 2.7% | viability, T/C [36] 0.44%
